Results published in patent publication US12384769B2, “Heteroaryl-substituted aminoalkyl azole compounds as pesticides” (Elanco Animal Health GmbH, priority 2019, dated 2025).

Experiments:
Type in all cases: in vivo
Boophilus microplus = Boophilus microplus injection test (BOOPMI Injection); details: Rhipicephalus microplus, 168 h, injection into adult engorged female ticks, egg deposition after 7 days, read-out: activity (efficacy, infertile eggs)
Method in brief: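 Adult engorged female ticks (5 per group) injected into the abdomen with 1 μL compound in DMSO, then held in a climate chamber. Fertile egg deposition scored after 7 days, with unclear eggs kept until hatching (~42 days). Efficacy 100% = all eggs infertile, 0% = all fertile.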

[1] = tested on: Rhipicephalus microplus (strain Parkhurst, resistant against synthetic pyrethroids); assay: Rhipicephalus microplus in-vitro contact test, larval cattle tick (BOOPMI Contact); details: 5 μg/cm^2 (=500 g/ha), after 48 hours, read-out: activity (efficacy, larvae dead or moribund)
Method in brief: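 Efficacy, expressed as percentage of larvae dead or moribund, is judged by negative geotactic behaviour 48 h after larvae (20-50 per tube) enter tubes whose inner walls carry a dried acetone film of compound, 5 μg/cm² at 900 ppm. Incubation: horizontal, 27 °C, 85% relative humidity.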

Ctenocephalides felis [2] = assay: Ctenocephalides felis in-vitro contact test, adult cat flea; details: 5 μg/cm^2 (=500 g/ha), after 48 hours, read-out: activity (efficacy, fleas dead or moribund)
Method in brief: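 Acetone solutions coated onto inner walls of glass tubes; 900 ppm gives 5 μg/cm^2. After drying, 5-10 adult Ctenocephalides felis per tube held 48 h at room temperature. Fleas then placed on 45-50° C. plate for up to 5 min; those unable to climb away scored dead or moribund, efficacy as % dead/moribund.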

Ctenocephalides felis [3] = assay: Ctenocephalides felis oral test (CTECFE); details: 48 h, 100 ppm in cattle blood, after 2 days
Method in brief: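 About 20 adult unfed fleas fed through parafilm on cattle blood held at 37° C and dosed with compound from a DMSO concentrate; flea chamber at room temperature. Percent mortality scored after 2 days.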

Myzus persicae = Myzus persicae oral test; details: 120 h, after 5 days
Method: Solvent: 100 parts by weight acetone
Afterwards the plates are sealed with parafilm through which a mixed population of the green peach aphid (Myzus persicae) can suck on the compound preparation.
After 5 days mortality in % is determined. 100% means all aphids have been killed and 0% means none of the aphids have been killed.

[4] = tested on: Aedes aegypti strain MONHEIM; assay: Aedes aegypti test (AEDSAE surface treatment & contact assay); details: 30 minutes exposure, 24 hours after contact, read-out: efficacy (mortality)
[5] = tested on: Culex quinquefasciatus strain P00; assay: Culex quinquefasciatus test (CULXFA surface treatment & contact assay); details: 30 minutes exposure, 24 hours after contact, read-out: efficacy (mortality)
Method: Culex quinquefasciatus Test (CULXFA Surface Treatment & Contact Assay)
Solvent: Aceton+2000 ppm rapeseed oil methyl ester (RME)
In order to produce a sufficient, active ingredient containing solution it is necessary to solve the test compound in the solvent-mix (acetone at 2 mg/mL/RME 2 000 ppm). This solution is pipetted onto a glazed tile and after evaporation of the acetone, adult mosquitoes of the species Culex quinquefasciatus strain P00 are placed onto the dried surface. The exposure time is 30 minutes.
Mortality in percent (%) is determined 24 hours after contact of the insects to the treated surface. 100% mortality means that all tested insects are dead, whereas 0% means that no insect died.

[6] = tested on: Musca domestica strain WHO-N; assay: Musca domestica test (MUSCDO surface treatment & contact assay); details: surface concentration 20 mg/m^2, glazed tile, 30 minutes exposure, 24 hours after contact, read-out: efficacy (mortality)
[7] = surface concentration 4 mg/m^2, glazed tile
[8] = surface concentration 20 mg/m^2, glazed tile

SMILES: C[C@H](Nc1nc2cc(C(F)(F)F)c(Cl)cc2o1)c1ncnn1-c1ncccn1 [Example I-001, 6-chloro-N-{(1S)-1-[1-(pyrimidin-2-yl)-1H-1,2,4-triazol-5-yl]ethyl}-5-(trifluoromethyl)-1,3-benzoxazol-2-amine]
- pest or weed control at 0.004 mg (Boophilus microplus; 4 μg/animal): 100%
- pest or weed control at 0.02 mg (Boophilus microplus; 20 μg/animal): 100%
- pest or weed control at 5 µg/cm2 [1]: 100%
- pest or weed control at 5 µg/cm2, 5 µg/cm2 (Ctenocephalides felis [2]): 100%
- mortality at 100 ppm (Ctenocephalides felis [3]): 100%
- mortality at 4 ppm (Myzus persicae): 100%
- mortality at 4 mg/m2 [4, 7]: 85 to 100%
- mortality at 20 mg/m2 [4, 8]: 90 to 100%
- mortality at 4 mg/m2 [5, 7]: 90 to 100%
- mortality at 20 mg/m2 [5, 8]: 90 to 100%
- mortality at 20 mg/m2 [6]: 90 to 100%
